According to ChEMBL document CHEMBL4483862, “Open-source discovery of chemical leads for next-generation chemoprotective antimalarials” (2018):

System: Plasmodium berghei
Test: Luciferase/luciferin-expressing antifolate-resistant parasites were used to infect a culture of HepG2 cells that were pre-incubated with compounds. Infected hepatocytes emit light due to the luciferase reaction. Assay results are presented as the percent inhibition of light emission compared to control. […]
Assay type: functional
Details: sporozoite; for IC90: read-out: LUCIFERASE INFECTION ASSAY - IC90
[1] = read-out: LUCIFERASE INFECTION ASSAY - IC50

Row | Structure (SMILES) | IC90 [µM] | IC50 [1] [µM] | further results
1 | Cc1cc(NNC(=O)Nc2ccc(Cl)cc2)nc2c1c(C)nn2C | > 9.57 | – | IC50 (HEPG2TOX_HILL_SLOPE 1.06, HEPG2TOX_R_SQUARED 0.939, PBLUC_HILL_SLOPE 2, PBLUC_R_SQUARED 0.223, read-out: LUCIFERASE INFECTION ASSAY - IC50): 4.05 µM
2 | Cc1nn(-c2ccccc2Cl)c2sc(C(=O)NC3CCN(C(C)C)CC3)cc12 | > 10 | – | IC50 (PBLUC_HILL_SLOPE 2.83, PBLUC_R_SQUARED 0.189, read-out: LUCIFERASE INFECTION ASSAY - IC50): 5.04 µM
3 | Cc1c(S(=O)(=O)c2ccc(Cl)cc2)csc1NC(=O)Nc1cc(C2CC2)n[nH]1 | > 7.55 | – | IC50 (HEPG2TOX_HILL_SLOPE 0.224, HEPG2TOX_R_SQUARED 0.199, PBLUC_HILL_SLOPE 2.99, PBLUC_R_SQUARED 0.447, read-out: LUCIFERASE INFECTION ASSAY - IC50): 4.79 µM
4 | N#C/C=C1\SCC(=O)N1CC(=O)c1ccc([N+](=O)[O-])cc1 | > 10 | – | IC50 (PBLUC_HILL_SLOPE 1.79, PBLUC_R_SQUARED 0.472, read-out: LUCIFERASE INFECTION ASSAY - IC50): 5.27 µM
5 | CS(=O)(=O)NCCc1ccc(C(=O)Nc2ccc(Cl)c(C(F)(F)F)c2)s1 | > 10 | – | IC50 (HEPG2TOX_HILL_SLOPE 16.3, HEPG2TOX_R_SQUARED 0.947, PBLUC_HILL_SLOPE 9.17, PBLUC_R_SQUARED 0.224, read-out: LUCIFERASE INFECTION ASSAY - IC50): 8.32 µM
6 | CN(C)Cc1ccc(CNc2ncnc3scc(-c4ccccc4)c23)cc1 | 2.66 | 0.704 | –
7 | CN(C)CCNCc1ccc(OC2CCCC2)cc1 | > 11 | > 11 | –
8 | CNS(=O)(=O)c1cc(NS(=O)(=O)/C=C/c2ccccc2)ccc1C | > 10 | > 10 | –
9 | CCCCn1nnnc1COC(=O)c1ccccc1Sc1ccccc1C#N | > 10 | > 10 | –
10 | COc1ccc(S(=O)(=O)Nc2cc(Sc3ccc(C)cc3)c(O)c3ccccc23)cc1 | > 10 | – | IC50 (PBLUC_HILL_SLOPE 2.53, PBLUC_R_SQUARED 0.459, read-out: LUCIFERASE INFECTION ASSAY - IC50): 6.71 µM
11 | O=C(Nc1ccc(Oc2ccccc2)cc1)c1csc(C(O)c2ccccc2)n1 (configuration not stated) | 7.41 | 1.63 | –
12 | Cc1noc2nc(C3CC3)cc(C(=O)Oc3ccc(N4CCCC4=O)cc3)c12 | > 10 | > 10 | –
13 | CSCCC(NC(=O)c1ccc([N+](=O)[O-])cc1Cl)C(=O)OCC(=O)Nc1ccc(OC(F)(F)F)cc1 (configuration not stated) | > 10 | > 10 | –
14 | COc1cc(-c2nc3ccc(NC(=O)c4c(C)noc4C)cn3n2)cc(OC)c1OC | > 10 | > 10 | –
15 | Cc1c(-c2ccc(Cl)c(S(=O)(=O)N(C)c3ccccc3)c2)oc2ccc(F)cc2c1=O | 4.45 | – | IC50 (PBLUC_HILL_SLOPE 9.42, PBLUC_R_SQUARED 0.55, read-out: LUCIFERASE INFECTION ASSAY - IC50): 3.52 µM
16 | CCCCCC(/C=N/Nc1nncc2ccccc12)=C\c1ccccc1 | 9.96 | – | IC50 (PBLUC_HILL_SLOPE 4.26, PBLUC_R_SQUARED 0.663, read-out: LUCIFERASE INFECTION ASSAY - IC50): 5.95 µM
17 | CC(C)(C)NC(=S)N/N=C/c1cc(I)cc(I)c1O | 4.23 | – | IC50 (HEPG2TOX_HILL_SLOPE 8.65, HEPG2TOX_R_SQUARED 0.588, PBLUC_HILL_SLOPE 9.82, PBLUC_R_SQUARED 0.5, read-out: LUCIFERASE INFECTION ASSAY - IC50): 3.38 µM
18 | Cc1ccc(-c2nc3c(s2)CN(C(=O)c2ccco2)CC3)cc1 | 3.19 | – | IC50 (PBLUC_HILL_SLOPE 23.5, PBLUC_R_SQUARED 0.61, read-out: LUCIFERASE INFECTION ASSAY - IC50): 2.9 µM
19 | CNC(=O)c1ccc(CN(Cc2ccco2)Cc2cc3ccc(C)c(C)c3nc2Cl)cc1 | 1.48 | – | IC50 (PBLUC_HILL_SLOPE 9.58, PBLUC_R_SQUARED 0.657, read-out: LUCIFERASE INFECTION ASSAY - IC50): 0.741 µM
20 | O=C1C(Cl)=C(Nc2ccc(O)cc2)C(=O)c2ccccc21 | 4.51 | – | IC50 (FFLUC_HILL_SLOPE 7.86, FFLUC_R_SQUARED 0.408, HEPG2TOX_HILL_SLOPE 4.2, HEPG2TOX_R_SQUARED 0.984, PBLUC_HILL_SLOPE 12.7, PBLUC_R_SQUARED 0.571, read-out: LUCIFERASE INFECTION ASSAY - IC50): 3.8 µM
21 | CC(C)C(C)CCC(C)C1CC=C2C3CCC4CC(O)CCC4(C)C3CCC21C (configuration not stated) | 0.344 | – | IC50 (HEPG2TOX_HILL_SLOPE 17.3, HEPG2TOX_R_SQUARED 0.943, PBLUC_HILL_SLOPE 11.3, PBLUC_R_SQUARED 0.846, read-out: LUCIFERASE INFECTION ASSAY - IC50): 0.284 µM

Row | Structure (SMILES) | IC90 [µM] | IC50 [1] [µM] | further results
22 | CC(CNC(=O)C1CCN(S(=O)(=O)c2cccs2)CC1)c1nc2ccccc2n1C(F)F (configuration not stated) | > 10 | > 10 | –
23 | Oc1c(-c2cc(C(F)(F)F)[nH]n2)ccc2ccccc12 | 4.29 | – | IC50 (HEPG2TOX_HILL_SLOPE 2.58, HEPG2TOX_R_SQUARED 0.339, PBLUC_HILL_SLOPE 10.9, PBLUC_R_SQUARED 0.613, read-out: LUCIFERASE INFECTION ASSAY - IC50): 3.51 µM
24 | COc1ccc(-c2cnc3sc(NCCc4ccc(S(N)(=O)=O)cc4)nn23)cn1 | > 7.67 | > 7.67 | –
25 | FC(F)(F)c1cnc(N/N=C/c2ccccn2)c(Cl)c1 | 4 | 3.33 | –
26 | CCN1CCc2nc(NC(=O)c3nc(-c4cccs4)n(-c4ccc(F)cc4)n3)sc2C1 | > 10 | > 10 | –
27 | CCN(CCO)c1ccc(Nc2cc(C(=O)Nc3ccccc3)ncn2)cc1 | 7.92 | – | IC50 (HEPG2TOX_HILL_SLOPE 13.5, HEPG2TOX_R_SQUARED 0.28, PBLUC_HILL_SLOPE 1.45, PBLUC_R_SQUARED 0.807, read-out: LUCIFERASE INFECTION ASSAY - IC50): 1.74 µM
28 | Cc1nc2ccccn2c1-c1ccnn1S(=O)(=O)c1ccc(F)cc1 | 3.78 | – | IC50 (HEPG2TOX_HILL_SLOPE 1.46, HEPG2TOX_R_SQUARED 0.888, PBLUC_HILL_SLOPE 12.2, PBLUC_R_SQUARED 0.241, read-out: LUCIFERASE INFECTION ASSAY - IC50): 3.16 µM
29 | Cc1nn(Cc2ccccc2)c(C)c1C(=O)N1CCN(CCOc2ccc(Cl)cc2)CC1 | > 10 | – | IC50 (PBLUC_HILL_SLOPE 3.21, PBLUC_R_SQUARED 0.27, read-out: LUCIFERASE INFECTION ASSAY - IC50): 9.94 µM
30 | O=C(c1cc(-c2ccccc2)nc2ccccc12)N1N=CCC1(O)C(F)(F)F (configuration not stated) | 8.59 | – | IC50 (PBLUC_HILL_SLOPE 5.58, 3.40, PBLUC_R_SQUARED 0.0168, 0.865, read-out: LUCIFERASE INFECTION ASSAY - IC50): 4.5 µM
31 | CCOc1cc2c(cc1OCC)CN(c1cnn(-c3nc4ccccc4[nH]3)c(=O)c1Cl)CC2 | 2.69 | – | IC50 (HEPG2TOX_HILL_SLOPE 1.71, HEPG2TOX_R_SQUARED 0.884, PBLUC_HILL_SLOPE 7.85, 14.7, PBLUC_R_SQUARED 0.450, 0.666, read-out: LUCIFERASE INFECTION ASSAY - IC50): 2.1 µM
32 | N#CCCN(Cc1ccco1)C(=O)Cn1ncc(Cl)c(Cl)c1=O | > 10 | – | IC50 (PBLUC_HILL_SLOPE 3.57, PBLUC_R_SQUARED 0.442, read-out: LUCIFERASE INFECTION ASSAY - IC50): 8.27 µM
33 | O=c1[nH]n(-c2ccc(Cl)c(Cl)c2)cc1-c1cccc(Cl)c1 | 5.52 | – | IC50 (HEPG2TOX_HILL_SLOPE 2.22, HEPG2TOX_R_SQUARED 0.951, PBLUC_HILL_SLOPE 6.3, PBLUC_R_SQUARED 0.659, read-out: LUCIFERASE INFECTION ASSAY - IC50): 3.89 µM
34 | O=[N+]([O-])c1ccc(N2CCc3ccccc32)cc1 | > 13.7 | – | IC50 (HEPG2TOX_HILL_SLOPE 7.98, HEPG2TOX_R_SQUARED 0.901, PBLUC_HILL_SLOPE 21.8, PBLUC_R_SQUARED 0.45, read-out: LUCIFERASE INFECTION ASSAY - IC50): 13.3 µM
35 | COc1cccc(-c2nc(CSc3nc4ccccc4c(=O)n3C)cs2)c1 | 3.7 | – | IC50 (FFLUC_HILL_SLOPE 18, FFLUC_R_SQUARED 0.516, HEPG2TOX_HILL_SLOPE 5.55, HEPG2TOX_R_SQUARED 0.861, PBLUC_HILL_SLOPE 17.5, PBLUC_R_SQUARED 0.299, read-out: LUCIFERASE INFECTION ASSAY - IC50): 3.27 µM
36 | Cc1onc(-c2ccc(Cl)cc2Cl)c1-c1csc(Nc2ccc(Cl)cc2)n1 | > 7.56 | – | IC50 (FFLUC_HILL_SLOPE 2.37, FFLUC_R_SQUARED 0.46, PBLUC_HILL_SLOPE 2.86, PBLUC_R_SQUARED 0.233, read-out: LUCIFERASE INFECTION ASSAY - IC50): 6.39 µM
37 | Cc1cc(C)c(C(=O)C2CCN(C(=O)c3cccs3)CC2)c(C)c1 | > 9.66 | – | IC50 (PBLUC_HILL_SLOPE 1.97, PBLUC_R_SQUARED 0.657, read-out: LUCIFERASE INFECTION ASSAY - IC50): 3.99 µM
38 | CCc1cccc(CC)c1N(C(C)=O)c1nc(/C=C/C(=O)c2ccc3c(c2)OCCO3)cs1 | 3.81 | – | IC50 (FFLUC_HILL_SLOPE 12.1, FFLUC_R_SQUARED 0.466, HEPG2TOX_HILL_SLOPE 15.2, HEPG2TOX_R_SQUARED 0.81, PBLUC_HILL_SLOPE 12.5, PBLUC_R_SQUARED 0.644, read-out: LUCIFERASE INFECTION ASSAY - IC50): 3.2 µM
39 | Cc1cc(C(C)(C)C)cc(C)c1N1C(=O)C=CC1=O | > 12.8 | – | IC50 (HEPG2TOX_HILL_SLOPE 11.2, HEPG2TOX_R_SQUARED 0.888, PBLUC_HILL_SLOPE 4.45, PBLUC_R_SQUARED 0.621, read-out: LUCIFERASE INFECTION ASSAY - IC50): 8.96 µM
40 | Cc1nn(-c2ccccc2)c(Cl)c1/C=N/N1CCN(c2ccc(Cl)cc2)CC1 | > 10 | > 10 | –
41 | O=C(CSc1ccccc1)Nc1nc2ccccn2c1C(=O)NC1CCCC1 | > 8.37 | – | IC50 (PBLUC_HILL_SLOPE 8.28, PBLUC_R_SQUARED 0.442, read-out: LUCIFERASE INFECTION ASSAY - IC50): 7.37 µM
